Measured values reported in US12622962B2 (priority 2019, dated 2026).

Assays:
[1] = tested on: HBcAg antigen-specific IFN-γ; parameters: species or system C57BL/6(N) mice; details: mouse, in vivo
[2] = tested on: HBsAg antigen-specific IFN-γ; parameters: species or system C57BL/6(N) mice; details: mouse, in vivo

QS-21 [QS21]
induced production level of HBcAg-specific IFN-γ, CpG T1 with different saponins [1]: best effect
induced production level of HBsAg-specific IFN-γ, CpG T1 with different saponins [2]: best effect
